Earlier results on seven molecules are cited in patent publication US20180015057A1, “ERR ALPHA AND ERR GAMMA ARE ESSENTIAL COORDINATORS OF CARDIAC METABOLISM AND FUNCTION” (Salk Institute for Biological Studies, priority 2015, published 2018).

The target in data set [1] is T1, ERRβ (Homo sapiens, UniProt O95718).
T1 sequence (O95718 1-433): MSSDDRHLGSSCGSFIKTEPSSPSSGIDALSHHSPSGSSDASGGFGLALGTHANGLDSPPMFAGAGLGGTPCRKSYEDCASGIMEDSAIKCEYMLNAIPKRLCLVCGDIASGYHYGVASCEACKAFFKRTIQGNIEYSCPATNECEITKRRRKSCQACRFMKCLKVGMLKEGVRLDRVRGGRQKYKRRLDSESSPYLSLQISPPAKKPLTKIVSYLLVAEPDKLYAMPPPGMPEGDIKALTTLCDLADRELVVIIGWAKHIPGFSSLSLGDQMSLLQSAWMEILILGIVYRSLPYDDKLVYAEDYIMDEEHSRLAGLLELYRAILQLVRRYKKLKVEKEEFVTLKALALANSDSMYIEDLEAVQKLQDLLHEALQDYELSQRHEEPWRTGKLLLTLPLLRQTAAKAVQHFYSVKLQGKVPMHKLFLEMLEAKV
As to conditions: for activation of ERRβ: for example in the presence of PGC-1a.

Data set [2] deals with T2, ERRα (Homo sapiens, UniProt P11474).
T2 sequence (P11474 1-423): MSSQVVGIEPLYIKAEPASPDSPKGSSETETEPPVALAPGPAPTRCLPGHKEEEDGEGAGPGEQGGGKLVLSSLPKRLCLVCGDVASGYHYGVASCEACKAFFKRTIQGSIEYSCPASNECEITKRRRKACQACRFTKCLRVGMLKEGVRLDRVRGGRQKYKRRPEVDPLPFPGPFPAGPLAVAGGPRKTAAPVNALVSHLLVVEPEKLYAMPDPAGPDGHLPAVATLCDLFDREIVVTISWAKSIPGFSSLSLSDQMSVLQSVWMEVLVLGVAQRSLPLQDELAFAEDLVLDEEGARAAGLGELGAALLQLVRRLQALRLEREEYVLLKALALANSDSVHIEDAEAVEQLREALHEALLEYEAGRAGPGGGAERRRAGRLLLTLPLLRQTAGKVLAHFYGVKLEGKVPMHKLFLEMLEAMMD
As to conditions: for example in the presence of PGC-1a.

For data set [3], the target named is T3, ERRγ (Homo sapiens, UniProt P62508).
T3 sequence (P62508 1-458): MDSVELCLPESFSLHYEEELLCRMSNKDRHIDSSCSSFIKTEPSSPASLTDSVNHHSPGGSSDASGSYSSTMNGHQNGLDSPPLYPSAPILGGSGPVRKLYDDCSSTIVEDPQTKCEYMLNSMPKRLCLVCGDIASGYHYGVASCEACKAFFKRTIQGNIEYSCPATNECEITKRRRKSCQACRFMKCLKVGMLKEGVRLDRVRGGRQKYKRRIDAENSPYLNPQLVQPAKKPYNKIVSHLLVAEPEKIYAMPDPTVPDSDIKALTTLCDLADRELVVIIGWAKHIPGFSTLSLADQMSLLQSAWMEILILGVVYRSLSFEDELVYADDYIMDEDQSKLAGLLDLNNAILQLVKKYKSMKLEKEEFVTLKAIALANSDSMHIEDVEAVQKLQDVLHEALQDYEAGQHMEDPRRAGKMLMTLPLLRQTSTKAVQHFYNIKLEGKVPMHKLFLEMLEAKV
As to conditions: for activation of ERRγ: for example in the presence of PGC-1a.

`CC(C)c1ccc(/C=N/NC(=O)c2ccc(O)cc2)cc1` [GSK4716]: the “agonism of ERRβ” value in data set [1] is “agonists”.
As to `Cc1ccc(/C=N/NC(=O)c2ccc(O)cc2)cc1` [DY163], the “activation of ERRα” value in data set [2] was “activate”. In data set [1], the “activation of ERRβ” value is listed as “activate”. Besides, in data set [3], the “activation of ERRγ” value was “activate”.
As to `O=C(NN=Cc1ccccc1)c1ccc(O)cc1` [DY162], the “activation of ERRα” value in data set [2] was “activate”. In addition, the “activation of ERRβ” value in data set [1] is listed as “activate”. For the same molecule, the “activation of ERRγ” value in data set [3] was “activate”.
As for `Cc1cccc(C=NNC(=O)c2ccc(O)cc2)c1` [DY159], the “activation of ERRα” value in data set [2] is given as “activate”. The “activation of ERRβ” value in data set [1] is “activate”. The “activation of ERRγ” value in data set [3] is recorded as “activate”.
As for `CCN(CC)c1ccc(C=NNC(=O)c2ccc(O)cc2)cc1` (stereo in doubt) [GSK9089, N-[(E)-[4-(diethylamino)phenyl]methylideneamino]-4-hydroxybenzamide], the “agonism of ERRβ” value in data set [1] is “agonists”. For the same molecule, the “agonism of ERRγ” value in data set [3] was “agonists”.
For the molecule `Nc1ccc(C(=O)N/N=C/c2ccc(/N=N/c3ccccc3)cc2)cn1` [E6], the “selectivity for ERRγ versus ERRα and β” value in data set [3] (screening assay for agonists derived from GSK4716 (Kim et al. 2009)) is “selective for ERRγ but not ERRα and β”.
For `CCc1ccc(C=NNC(=O)c2ccc(O)cc2)s1` [DY164], in data set [2], the “activation of ERRα” value is on record as “activate”. The “activation of ERRβ” value in data set [1] is given as “activate”. The “activation of ERRγ” value in data set [3] was “activate”.
